# Laboratory results reported in patent US11345659B2, “Pipecolic esters for inhibition of the proteasome” (THE BOARD OF REGENTS OF THE UNIVERSY OF TEXAS SYSTEM, priority 2018, dated 2022).
# Key:
# [1] = molecular target: T1, latent core 20 S proteasome (Homo sapiens, UniProt P25787+P25789); assay: PGPH peptidase activity of latent 20 S core; assay type: biochemical
# T1 construct: purified from erythrocytes; purchased Enzo Life Sciences, Inc. (Farmingdale, N.Y.); host or cells: human erythrocytes
# [2] = molecular target: 20 S proteasome and 19 S regulatory particle (Homo sapiens, UniProt P25787+P25789); assay: In vitro reconstruction of 26 S: activation of 20 S core by 19 S regulatory particle; assay type: biochemical; settings: pretreatment 10 minutes RT with 1 μM, 2:1 19 S:20 S, with ATP
# Experimental: The 26 S proteasome can be reconstructed in vitro from the purified core (20 S) and regulatory particle (19 S) protein complexes. Activation of the core is considered a measure of effectiveness of the reconstruction. […] The reconstruction was carried out in the presence of ATP (1 mM ATP, 0.5 mM MgCl2, 0.5 mM dithiothreitol), as required for the optimal conditions of the 20 S-19 S binding. Averages and SD from three independent experiments are presented.
# [3] = molecular target: T1, latent core 20 S proteasome; assay: Competition of compound 3 with tRpt6 peptide, ChT-L activity of latent core; assay type: biochemical; settings: 1 μM compound 3, 2 μM tRpt6
# Source text: According to the most recent model of the 26 S proteasome dynamic cycle, Rpt6 succeeds the Hb-Y—X containing anchor subunits Rpt5, Rpt3, and Rpt2 in docking into the α face pockets and promoting an intermediate conformation between latent and activated (open gate) proteasomes (Dong et al. ([…]) Nature 565(7737): 49-55). […] For comparison, no competition between tRpt5, expected to occupy the α5/α6 pocket, and compound 3 was detected.
# Referring to FIG. 4, the C-terminal peptide derived from Rpt6 subunit compromises inhibition of the ChT-L activity of the latent core by the compound 3; however, only when added to the proteasome prior to the inhibitor. […] 1 μM compound 3 and 2 μM tRpt6 were tested. Mean±SD; n=3 to 6.
# [4] = molecular target: T1, latent core 20 S proteasome; assay: T-L peptidase activity of latent 20 S core; assay type: biochemical
# 20 S proteasome = molecular target: T2, 20 S proteasome (Homo sapiens, UniProt P25787+P25789); assay: PGPH peptidase activity of tRpt5-activated 20 S core; assay type: biochemical; settings: core activated with tRpt5
# T2 construct: purified from erythrocytes; purchased Enzo Life Sciences, Inc. (Farmingdale, N.Y.); host or cells: human erythrocytes
# Experimental: Human housekeeping 20 S and 26 S and complexes purified from erythrocytes were purchased from Enzo Life Sciences, Inc. (Farmingdale, N.Y.). The 1 mg/ml stock 20 S proteasome was diluted to 0.2 mg/ml working solution in 50 mM Tris/HCl, pH 8 containing 20% glycerol (dilution buffer). For the 26 S proteasome stock, the dilution buffer was supplemented with 2 mM ATP, 1 mM MgCl2, and 1 mM DTT (dithiothreitol). […] of fluorescence emitted by 7-amino-4-methylcoumarin ([…]; Bachem Bioscience Inc., Philadelphia, Pa.), used at concentration of 100 μM. Free AMC (Sigma-Aldrich, St. Louis, Mo.) was used as the standard. The Rpt5 C-terminal peptide was synthesized (standard solid-phase peptide chemistry) and purified to at least 98% purity by GenScript (Piscataway, N.J.). The Rpt5 peptide and the peptide substrate were dissolved in dimethylsulfoxide (DMSO) and such stock solutions were stored at −20° C. […]
# The reaction was carried out in 96-well plates, in 100 μL of reaction mixture, for 1 hour at 37° C. […] The reaction rates were calculated from a linear segment of kinetic curves constructed from measurements in 1-minutes intervals (Fluoroskan Ascent plate reader; Thermo Fisher Scientific Inc., Waltham, Mass.). Reaction rates were calculated using a linear fit executed by Slope Analyzer and Enzyme Kinetics applications launched within Origin Pro 2017 (OriginLab). […]
# [5] = tested on: human cultured androgen-resistant prostate cancer PC3 cells; assay: Scratch test with PC3 cells; assay type: cell-based; settings: 1 μM, 24 hrs, 0.5 mm gap
# Experimental: The “scratch test” was performed with human cultured androgen-resistant prostate cancer PC3 cells. The surface of growing confluent cells was scratched to produce a 0.5 mm wide gap. The scratch was photographed at time 0 hrs. and the cells were cultured with vehicle (DMSO; 1:1000) or with 1 μM of compound 3. After 24 hrs the scratch in control culture was almost entirely closed.
structure (smiles),measurement,setting,value
"COc1cc(CCCOC(=O)[C@@H]2CCCCN2C(=O)OCc2ccccc2)cc(OC)c1OC [Compound 3, 1-benzyl 2-(3-(3,4,5-trimethoxyphenyl)propyl) (S)-piperidine-1,2-dicarboxylate]",IC50,[1],> 50 µM
same,remaining activity at 10 µM,"[1]; 10 μM compound, n=5, read-out: PGPH activity, % of control",99%
same,remaining activity at 50 µM,"[1]; 50 μM compound, n=3, read-out: PGPH activity, % of control",71%
same,activation of 20 S core by 19 S,[2],"strongly attenuated the activation, by about two-thirds"
same,inhibition of ChT-L of the core when tRpt6 is added before the compound,[3],significantly attenuated inhibition of the core
same,inhibition of the core when the compound is preincubated before addition of tRpt6,[3],No attenuation was observed
same,IC50,[4],> 50 µM
same,remaining activity at 1 µM,"[4]; 1 μM compound, n=3, read-out: T-L activity, % of the control",77%
same,remaining activity at 50 µM,"[4]; 50 μM compound, n=4, read-out: T-L activity, % of the control",64%
same,IC50,20 S proteasome,2.6 µM
same,closure of scratch (migration and proliferation),[5],the scratch was still visible
